Experimental data taken from patent publication US20080234266A1, “Squaric Acid Derivatives II” (priority 2005, published 2008).
pIC50: −log10 of the molar value.

Target: T1, CHK1 kinase (Homo sapiens, UniProt O14757)
T1 construct: glutathione S-transferase (GST); made in house; host or cells: Sf21 insect cells (S. frugiperda), baculovirus
T1 sequence (O14757 1-476): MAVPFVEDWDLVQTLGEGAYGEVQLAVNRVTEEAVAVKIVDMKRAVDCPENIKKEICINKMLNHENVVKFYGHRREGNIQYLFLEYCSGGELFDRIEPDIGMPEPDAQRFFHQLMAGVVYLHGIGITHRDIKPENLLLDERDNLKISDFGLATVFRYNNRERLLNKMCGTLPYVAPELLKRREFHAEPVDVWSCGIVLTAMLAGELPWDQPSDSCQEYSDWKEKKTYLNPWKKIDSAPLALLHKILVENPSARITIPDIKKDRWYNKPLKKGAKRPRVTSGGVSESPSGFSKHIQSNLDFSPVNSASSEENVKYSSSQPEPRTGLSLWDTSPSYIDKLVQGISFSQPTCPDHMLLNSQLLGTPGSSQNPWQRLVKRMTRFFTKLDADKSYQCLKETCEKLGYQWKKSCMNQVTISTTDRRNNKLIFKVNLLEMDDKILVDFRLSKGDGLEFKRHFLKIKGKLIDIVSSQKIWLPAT
Experiment: Flashplate method (CHK1), measurement of the CHK1 kinase activity
Format: biochemical
Details: class symbols; 'Affinity to receptors'
How it was run: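 GST-tagged CHK1 expressed in Sf21 insect cells, incubated at 30 °C with biotinylated CHKtide (0.15 μg per well) and γ33P-ATP in pH 7.5 buffer (EGTA, Mg acetate, mercaptoethanol, 0.1% BSA). Stopped with EDTA, captured on streptavidin Flashplates and counted by scintillation. IC50 set against uninhibited reaction and 0.1 μM staurosporine as zero.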

`Cc1c(O)cccc1CNc1c(Nc2ccc3[nH]cnc3c2)c(=O)c1=O` [Compound A97, 3-(1H-benzimidazol-5-ylamino)-4-(3-hydroxy-2-methylbenzylamino)cyclobut-3-ene-1,2-dione] and `O=c1c(NCc2cccc(O)c2F)c(Nc2ccc3[nH]cnc3c2)c1=O` [Compound A103, 3-(1H-benzimidazol-5-ylamino)-4-(2-fluoro-3-hydroxybenzylamino)cyclobut-3-ene-1,2-dione] cannot be ordered by pIC50: < 6.00 for the first, < 6.00 for the second.

`Cc1nc2cc(Nc3c(NCc4cccc(O)c4)c(=O)c3=O)ccc2s1` [Compound A98, 3-(3-hydroxybenzylamino)-4-(2-methylbenzo-thiazol-5-ylamino)cyclobut-3-ene-1,2-dione] and `O=c1c(NCc2cccc(O)c2)c(Nc2ccc3scnc3c2)c1=O` [Compound A119, 3-(benzothiazol-5-ylamino)-4-(3-hydroxy-benzylamino)cyclobut-3-ene-1,2-dione] cannot be ordered by pIC50: < 6.00 for the first, < 6.00 for the second.

Going from `O=C(O)CC(Nc1c(Nc2ccc3[nH]cnc3c2)c(=O)c1=O)c1cccc(O)c1` (stereo not shown) [Compound A99, 3-[2-(1H-benzimidazol-5-ylamino)-3,4-dioxo-cyclobut-1-enylamino]-3-(3-hydroxyphenyl)-propionic acid] to `COC(=O)CC(Nc1c(Nc2ccc3[nH]cnc3c2)c(=O)c1=O)c1cccc(O)c1` (stereo not shown) [Compound A101, methyl 3-[2-(1H-benzimidazol-5-ylamino)-3,4-dioxocyclobut-1-enylamino]-3-(3-hydroxy-phenyl)propionate], the pIC50 rises from < 6.00 to > 6.00.

Going from `CCOC(=O)CC(Nc1c(Nc2ccc3[nH]cnc3c2)c(=O)c1=O)c1cccc(O)c1` (stereo not shown) [Compound A100, ethyl 3-[2-(1H-benzimidazol-5-ylamino)-3,4-dioxocyclobut-1-enylamino]-3-(3-hydroxy-phenyl)propionate] to `CC[C@@H](Nc1c(Nc2ccc3[nH]cnc3c2)c(=O)c1=O)c1cccc(O)c1` [Compound A120, 3-(1H-benzimidazol-5-ylamino)-4-[(R)-1-(3-hydroxyphenyl)propylamino]cyclobut-3-ene-1,2-dione], the pIC50 rises from < 6.00 to > 6.00.

`O=c1c(NCc2ccc3[nH]cc(-c4ccncc4)c3c2)c(Nc2ccc3[nH]cnc3c2)c1=O` [Compound A102, 3-(1H-benzimidazol-5-ylamino)-4-[(3-pyridin-4-yl-1H-indol-5-ylmethyl)amino]cyclobut-3-ene-1,2-dione] and `CC(=O)c1cccc(CNc2c(Nc3ccc4[nH]cnc4c3)c(=O)c2=O)c1` [Compound A127, 3-(1H-benzimidazol-5-ylamino)-4-(3-acetyl-benzylamino)cyclobut-3-ene-1,2-dione] cannot be ordered by pIC50: < 6.00 for the first, < 6.00 for the second.

Going from `CCOc1cccc(CNc2c(Nc3ccc4[nH]cnc4c3)c(=O)c2=O)c1` [Compound A104, 3-(1H-benzimidazol-5-ylamino)-4-(3-ethoxy-benzylamino)cyclobut-3-ene-1,2-dione] to `COc1cccc(CNc2c(Nc3ccc4[nH]cnc4c3)c(=O)c2=O)c1` [Compound A116, 3-(1H-benzimidazol-5-ylamino)-4-(3-methoxybenzylamino)cyclobut-3-ene-1,2-dione], the pIC50 rises from < 6.00 to > 6.00. The second is the more potent here.

Going from `O=C(CC(Nc1c(Nc2ccc3[nH]cnc3c2)c(=O)c1=O)c1cccc(O)c1)N1CCOCC1` (stereo not shown) [Compound A105, 3-(1H-benzimidazol-5-ylamino)-4-[1-(3-hydroxyphenyl)-3-morpholin-4-yl-3-oxo-propylamino]cyclobut-3-ene-1,2-dione] to `O=C(CC(Nc1c(Nc2ccc3[nH]cnc3c2)c(=O)c1=O)c1cccc(O)c1)N1CCNCC1` (stereo not shown) [Compound A112, 3-(1H-benzimidazol-5-ylamino)-4-[1-(3-hydroxyphenyl)-3-oxo-3-piperazin-1-ylpropyl-amino]cyclobut-3-ene-1,2-dione], the pIC50 rises from < 6.00 to > 6.00.

`COCCOc1cccc(CNc2c(Nc3ccc4[nH]cnc4c3)c(=O)c2=O)c1` [Compound A106, 3-(1H-benzimidazol-5-ylamino)-4-[3-(2-methoxyethoxy)benzylamino]cyclobut-3-ene-1,2-dione] and `O=c1c(NCc2cccc(OCCO)c2)c(Nc2ccc3[nH]cnc3c2)c1=O` [Compound A107, 3-(1H-benzimidazol-5-ylamino)-4-[3-(2-hydroxyethoxy)benzylamino]cyclobut-3-ene-1,2-dione] cannot be ordered by pIC50: < 6.00 for the first, < 6.00 for the second.

`CN(C)CCOc1cccc(CNc2c(Nc3ccc4[nH]cnc4c3)c(=O)c2=O)c1` [Compound A108, 3-(1H-benzimidazol-5-ylamino)-4-[3-(2-di-methylaminoethoxy)benzylamino]cyclobut-3-ene-1,2-dione] and `CC(=O)NCCOc1cccc(CNc2c(Nc3ccc4[nH]cnc4c3)c(=O)c2=O)c1` [Compound A109, 3-(1H-benzimidazol-5-ylamino)-4-[3-(2-acetamidoethoxy)benzylamino]cyclobut-3-ene-1,2-dione] cannot be ordered by pIC50: < 6.00 for the first, < 6.00 for the second.

`CS(=O)(=O)NCCOc1cccc(CNc2c(Nc3ccc4[nH]cnc4c3)c(=O)c2=O)c1` [Compound A110, 3-(1H-benzimidazol-5-ylamino)-4-[3-(2-methylsulfonylaminoethoxy)benzylamino]-cyclobut-3-ene-1,2-dione] and `CS(=O)(=O)c1cccc(CNc2c(Nc3ccc4[nH]cnc4c3)c(=O)c2=O)c1` [Compound A131, 3-(1H-benzimidazol-5-ylamino)-4-(3-methyl-sulfonylbenzylamino)cyclobut-3-ene-1,2-dione] cannot be ordered by pIC50: < 6.00 for the first, < 6.00 for the second.

`CCCCc1c(Nc2c(NCc3cccc(O)c3)c(=O)c2=O)ccc2[nH]cnc12` [Compound A111, 3-(4-butyl-1H-benzimidazol-5-ylamino)-4-(3-hydroxybenzylamino)cyclobut-3-ene-1,2-dione] and `Cc1cc2[nH]cnc2cc1Nc1c(NCc2cccc(O)c2)c(=O)c1=O` [Compound A126, 3-(3-hydroxybenzylamino)-4-(6-methyl-1H-benzimidazol-5-ylamino)cyclobut-3-ene-1,2-dione] cannot be ordered by pIC50: < 6.00 for the first, < 6.00 for the second.

`CN(C)CCNC(=O)CC(Nc1c(Nc2ccc3[nH]cnc3c2)c(=O)c1=O)c1cccc(O)c1` (stereo not shown) [Compound A113, 3-[2-(1H-benzimidazol-5-ylamino)-3,4-dioxo-cyclobut-1-enylamino]-N-(2-dimethylamino-ethyl)-3-(3-hydroxyphenyl)propionamide] and `COCCNC(=O)CC(Nc1c(Nc2ccc3[nH]cnc3c2)c(=O)c1=O)c1cccc(O)c1` (stereo not shown) [Compound A117, 3-[2-(1H-benzimidazol-5-ylamino)-3,4-dioxo-cyclobut-1-enylamino]-3-(3-hydroxyphenyl)-N-(2-methoxyethyl)propionamide] cannot be ordered by pIC50: < 6.00 for the first, < 6.00 for the second.

`CC[C@@H](Nc1c(Nc2ccc3[nH]cnc3c2)c(=O)c1=O)c1cccc(OC)c1` [Compound A114, 3-(1H-benzimidazol-5-ylamino)-4-[(R)-1-(3-methoxyphenyl)propylamino]cyclobut-3-ene-1,2-dione] and `CC[C@H](Nc1c(Nc2ccc3[nH]cnc3c2)c(=O)c1=O)c1cccc(OC)c1` [Compound A115, 3-(1H-benzimidazol-5-ylamino)-4-[(S)-1-(3-methoxyphenyl)propylamino]cyclobut-3-ene-1,2-dione] cannot be ordered by pIC50: < 6.00 for the first, < 6.00 for the second.

First: O=c1c(NCc2cccc(O)c2)c(Nc2cc(Cl)c3[nH]cnc3c2)c1=O [Compound A118, 3-(7-chloro-1H-benzimidazol-5-ylamino)-4-(3-hydroxybenzylamino)cyclobut-3-ene-1,2-dione]
Second: O=c1c(NCc2cccc(O)c2)c(Nc2cc3nc[nH]c3cc2F)c1=O [Compound A129, 3-(6-fluoro-1H-benzimidazol-5-ylamino)-4-(3-hydroxybenzylamino)cyclobut-3-ene-1,2-dione]
The pIC50 of the first is higher: > 6.00 for the first, < 6.00 for the second.

`COc1cccc(CNc2c(Nc3ccc4ncsc4c3)c(=O)c2=O)c1` [Compound A122, 3-(benzothiazol-6-ylamino)-4-(3-methoxy-benzylamino)cyclobut-3-ene-1,2-dione] and `O=C(O)c1cccc(CNc2c(Nc3ccc4[nH]cnc4c3)c(=O)c2=O)c1` [Compound A130, 3-(1H-benzimidazol-5-ylamino)-4-(3-carboxy-benzylamino)cyclobut-3-ene-1,2-dione] cannot be ordered by pIC50: < 6.00 for the first, < 6.00 for the second.

`O=c1c(NCc2ccc3c(c2)OCO3)c(Nc2ccc3[nH]cnc3c2)c1=O` [Compound A123, 3-[(benzo[1,3]dioxol-5-ylmethyl)amino]-4-(1H-benzimidazol-5-ylamino)cyclobut-3-ene-1,2-dione] and `O=c1c(NCc2cccc(B(O)O)c2)c(Nc2ccc3[nH]cnc3c2)c1=O` [Compound A125, 3-{[2-(1H-benzimidazol-5-ylamino)-3,4-dioxo-cyclobut-1-enylamino]methyl}phenylboronic acid] cannot be ordered by pIC50: < 6.00 for the first, < 6.00 for the second.

`CCN(CC)c1c(Nc2c(NCc3cccc(O)c3)c(=O)c2=O)cc(C(F)(F)F)c2[nH]cnc12` [Compound A124, 3-(4-diethylamino-7-trifluoromethyl-1H-benzimidazol-5-ylamino)-4-(3-hydroxy-benzylamino)cyclobut-3-ene-1,2-dione] and `COC(=O)Nc1cccc(CNc2c(Nc3ccc4[nH]cnc4c3)c(=O)c2=O)c1` [Compound A128, 3-(1H-benzimidazol-5-ylamino)-4-(3-methoxycarbonylaminobenzylamino)-cyclobut-3-ene-1,2-dione] cannot be ordered by pIC50: < 6.00 for the first, < 6.00 for the second.
